According to patent US5464834A, “N-substituted N'-heterobicyclic piperazines having pharmaceutical activity” (Adir et Compagnie, priority 1992, dated 1995):
Like-named read-outs stand apart in the source and are kept apart here.

Key:
[1] = biological target: T1, 5HT1A receptors (Rattus norvegicus, UniProt P19327); experiment: In vitro binding test, 5HT1A receptors ([3H]-8-OH-DPAT, hippocampus membranes); set-up: The hippocampus of the brains of decapitated rats was immediately frozen; from tissue; host or cells: hippocampus membranes of male Wistar rats; species or system rat (male Wistar)
T1 sequence (P19327 1-422): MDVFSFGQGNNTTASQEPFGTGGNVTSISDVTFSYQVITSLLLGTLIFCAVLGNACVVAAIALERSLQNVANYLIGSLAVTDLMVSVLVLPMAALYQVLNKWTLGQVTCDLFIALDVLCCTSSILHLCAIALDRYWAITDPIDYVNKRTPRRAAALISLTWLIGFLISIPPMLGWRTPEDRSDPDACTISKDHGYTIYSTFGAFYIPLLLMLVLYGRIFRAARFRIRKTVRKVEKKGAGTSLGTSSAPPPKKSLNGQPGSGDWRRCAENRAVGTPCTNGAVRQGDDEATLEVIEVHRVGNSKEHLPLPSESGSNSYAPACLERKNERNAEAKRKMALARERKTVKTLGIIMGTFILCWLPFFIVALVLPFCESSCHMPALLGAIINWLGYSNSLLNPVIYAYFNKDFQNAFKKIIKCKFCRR
Method: (§1) The tests were carried out using male Wistar rats weighing 200 to 220 g having free access to their food and to their drinking water in standard cages.
The hippocampus of the brains of decapitated rats was immediately frozen on solid carbon dioxide and then kept at -80° C. until preparation of the membranes. The tissue was homogenised at 4° C. in the appropriate buffer using a Polytron (Brinkman Instruments, Lucerne, Switzerland) and centrifuged at 20,000 revs/min.
Incubation was carried out for 30 minutes at 25° C. Non-specific binding was established by […] of 5HT. The tests were terminated by rapid filtration using a Brandel harvester through glass fibre filters pretreated with 0.1% polyethylene imine.
The IC50 values were determined in accordance with process 8 of Tallarida R. J. and Murray R. B., Manual of Pharmacological calculations with computer programs, Springer Verlag, New York, (1987).
The pKi was calculated in accordance with the following formula: [formula] wherein [L] is the concentration of the hot ligand (^[3] H-8-OH-DPAT, 0.4 nM) and Kd is the apparent dissociation constant determined from the saturation experiments.
The substances studied were dissolved in the incubation buffer.
Binding of 5HT1A receptors

[2] = biological target: T1, 5HT1A receptors; experiment: Spontaneous tail flick (STF) test, agonist (alone) and antagonist (vs 8-OH-DPAT); assay type: in vivo, rat (male Wistar); set-up: from tissue; host or cells: whole living male Wistar rats (endogenous receptor)
Method: as §1
(§2) The animals are isolated individually for the tests for hypothermia, corticosterone secretion and flat body posture, or combined in groups of three for the tailflick test.
(§3) The compounds to be studied were administered by the subcutaneous route (s.c.) 60 minutes before the beginning of the test, that is to say 30 minutes before the solvent (agonist responses) or the 8-OH-DPAT (antagonist responses).
(§4) In all of the tests the solvent is used in parallel as a control. The animals were left to rest in their cage during the period between the injections and the evaluation. For the agonist studies, the solvent was administered at 1 ml/kg s.c. 30 minutes before the beginning of the test. For the antagonist studies, doses of 8-OH-DPAT that induce sub-maximal responses were chosen, that is doses of 0.63, 0.16, 0.16 and 0.16 mg/kg s.c. for, respectively, the tail flick test, flat body posture test, corticosterone secretion test and hypothermia test.
The tail flicks were determined on the animals in horizontal opaque plastics cylinders with the tail of the animals hanging freely on the edge of the laboratory work bench. After allowing 5 minutes for adaptation, the number of movements made in 5 minutes was recorded. An STF is defined as being an elevation of the tail to a level higher than that of the axis of the body [Millan M. J. et al., J. Pharmacol. Exp. Ther., 256, 973-982 (1990)].
(§5) In general, after variance analysis, the results are subjected to the Dunett test. The results are taken as significant if p <0.05.
(§6) The doses of the compounds tested are all expressed in base terms. Unless specified otherwise, all of the compounds were dissolved in sterile water (to which if necessary a few drops of lactic acid were added) and administered at a volume of 1 ml/kg s.c.

[3] = biological target: T1, 5HT1A receptors; experiment: Flat body posture (FBP), agonist (alone) and antagonist (vs 8-OH-DPAT); assay type: in vivo, rat (male Wistar); set-up: from tissue; host or cells: whole living male Wistar rats (endogenous receptor); conditions: for ED50: rat, sc
Method: as §1, §2, §3, §4
(§7) The same animals were used to evaluate the influence of the compounds studied on FBP and on the determination of the plasma concentration of CS. All of the tests were carried out in the morning between 10.30 and 12.300 that is to say when the circadian levels of CS are lowest.
25 minutes after the treatment (that is to say 5 minutes before decapitation) the animals are observed in their cages and the presence or absence of FBP is noted.
(§8) The presence of FBP is defined by a characteristic posture of the animal. That posture is in the ventral decubitus position with the posterior limbs clearly extended. 5 minutes after the observation of FBP, the animals are decapitated and the blood from the trunk is collected in cooled tubes containing 50 μl of a 10% EDTA solution. After centrifugation at 4000 revs/min, the plasma is removed and stored at -30° C. until determination.
as §5
For the dose-response for the induction and inhibition of FBP, the ED50 values (doses at which 50% of the animals show a response) were calculated by the Litchfield and Wilcoxon method.
as §6

[4] = biological target: T1, 5HT1A receptors; experiment: Corticosterone secretion (CS), agonist (alone) and antagonist (vs 8-OH-DPAT); assay type: in vivo, rat (male Wistar); set-up: from tissue; host or cells: whole living male Wistar rats (endogenous receptor); conditions: for CS secretion MED alone: agonist test, compound alone s.c., minimum effective dose vs control; for ED50: rat, sc, read-out: CS secretion ID50 (95% CL) + DPAT
Method: as §1, §2, §3, §4, §7, §8
The CS was determined by a radio-competitive determination for a plasma protein that binds the CS: transcortine. The latter is obtained from a monkey serum. The separation of the CS-transcortine complexes from the free CS was carried out by means of a solution of dextran and active carbon. The detection limit was 50 pg/tube. The intra- and inter-experiment variations in determination were 5 and 15% respectively [cf Rivet J. M. et al, Eur. J. Pharmacol., 183,634-635 (1990)].
The CS base rates in the plasma never being zero, the following formula was used to calculated the percentage inhibition of plasma CS induced by 8-OH-DPAT: [formula]
as §5, §6

[5] = biological target: T1, 5HT1A receptors; experiment: Body temperature / hypothermia, agonist (alone) and antagonist (vs 8-OH-DPAT); assay type: in vivo, rat (male Wistar); set-up: from tissue; host or cells: whole living male Wistar rats (endogenous receptor); conditions: for ED50: rat, sc, read-out: HYPOTHERMIA ID50 (95% CL) + DPAT
Method: as §1, §2, §3, §4
The rats are immobilised and a lubricated digital thermometer (Termistroprobe of Testotherm, Basle, Switzerland) is inserted into the rectum to a depth of 5 cm. 30 seconds after insertion, the temperature is read on a digital scale. The percentage inhibition is calculated using the formula given above.
as §5, §6

[6] = tested on: 5HT1A receptor; experiment: Overall in vivo agonist/antagonist behaviour at 5HT1A receptors; set-up: species or system rat (male Wistar); conditions: Tables 1 and 2
[7] = biological target: T1, 5HT1A receptors; experiment: Drug discrimination (DD) 8-OH-DPAT; assay type: in vivo, rat (male Wistar); set-up: from tissue; host or cells: whole living male Wistar rats (endogenous receptor); conditions: rat, sc
Method: as §1
Male rats are maintained at 85% of their normal body weight by means of food restriction. In soundproofed chambers the animals are trained to press a pedal to obtain food according to an FR10 procedure (Fixed Ratio 10; the food is supplied to the rat when it has pressed the lever 10 times).
Daily sessions of 15 minutes are preceded by an injection of solvent or of the training drug (0.31 mg/kg of 8-OH-DPAT, j.p.). The animal receives a pellet of food after pressing 10 times on the "solvent" or "drug" pedal according to the compound administered before the session.
After the learning period the animals are tested twice a week (Wednesday and Friday). On the other three days training sessions are carried out.
On the training days the rats are given either solvent or 8-OH-DPAT 15 minutes before being tested.
On the test days the rats receive the chemical substance 60 minutes before the session.
The capacity of the chemical substance administered to induce a response (pressing on the "solvent" or "drug" (8-OH-DPAT ) lever ) is recorded.
7 animals chosen at random are used for each substance and for each dose. During the test period, the lever on which the rat first presses 10 times is determined as the lever chosen--a food pellet is then delivered. That selected lever will be reinforced by the delivery of food up to the end of the test session. The percentage of animals selecting the "drug" lever at a particular dose is calculated. In addition, the total number of responses carried out on the two levers is expressed as a percentage of the number of responses carried out on the "solvent" lever obtained on the occasion of a preceding training session.
as §6

[8] = rat hippocampus, [3H]-8-OH-DPAT 0.4 nM, 30 min at 25° C, read-out: AFFINITY (pKi) (converted)
[9] = agonist test, compound alone s.c., read-out: FBP ED50 (95% CL) alone
[10] = antagonist test, s.c., vs 8-OH-DPAT 0.16 mg/kg s.c., read-out: FBP ID50 (95% CL) + DPAT
[11] = antagonist test, s.c., vs 8-OH-DPAT 0.16 mg/kg s.c.
[12] = agonist test, compound alone s.c., minimum effective dose vs control

Row | Ki [1, 8] [nM] | ED50 [3, 9] [mg/kg] | ED50 [3, 10] [mg/kg] | CS secretion MED alone [4] [mg/kg] | ED50 [4, 11] [mg/kg] | HYPOTHERMIA MED alone [5, 12] [mg/kg] | ED50 [5, 11] [mg/kg] | Compound | Ki [1] [nM] | further results
1 | 1.02 | – | – | – | – | – | – | c1cc2c(c(N3CCN(CCc4ccc5ccccc5c4)CC3)c1)OCCO2 [Example 6, 4-(Benzodioxan-5-yl)-1-[2-(naphth-2-yl)ethyl]piperazine] | – | –
2 | – | – | – | – | – | – | – | c1cc2c(c(N3CCN(CCc4csc5ccccc45)CC3)c1)OCCO2 [Example 7, 4-(Benzodioxan-5-yl)-1-[2-(benzo[b]thiophen-3-yl)ethyl]piperazine] | 0.724 | –
3 | 1.7 | < 10 | 1.6 | > 10.0 | 1.56 | > 2.5 | 0.5 | c1cc2c(c(N3CCN(CC4Cc5ccsc5C4)CC3)c1)OCCO2 (racemic) [Example 3] | – | ED50 ([2]; rat, sc, antagonist test, s.c., vs 8-OH-DPAT 0.63 mg/kg s.c., read-out: STFs ID50 (95% CL) + DPAT): < 0.16 mg/kg; % MPA (% maximum possible antagonism), FBP ([3]; vs 8-OH-DPAT 0.16 mg/kg s.c.): 100%; % MPA (% maximum possible antagonism), CS secretion ([4]; vs 8-OH-DPAT 0.16 mg/kg s.c.): 100%
4 | – | – | – | – | – | – | – | c1csc(CCN2CCN(c3cccc4c3OCCO4)CC2)c1 [Example 13, 4-(Benzodioxan-5-yl)-1-[2-(thiophen-2-yl)ethyl]piperazine] | 1.1 | –
5 | 0.38 | – | – | – | – | – | – | c1cc2c(c(N3CCN(CCCCc4ccsc4)CC3)c1)OCCO2 [Example 4, 4-(Benzodioxan-5-yl)-1-[4-(thiophen-3-yl)butyl]piperazine] | – | –
6 | 1.7 | > 2.5 | < 2.5 | > 2.5 | 2.5 | > 2.5 | 0.63 | c1ccc(CCCN2CCN(c3cccc4c3OCCO4)CC2)cc1 [Example 12, 4-(Benzodioxan-5-yl)-1-(3-phenylpropyl)piperazine] | – | –
7 | – | – | – | – | – | – | – | c1cc2c(c(N3CCN(CCc4cc5ccsc5s4)CC3)c1)OCCO2 [Example 8, 4-(Benzodioxan-5-yl)-1-[2-(thieno[2,3-b]thiophen-2-yl)ethyl]piperazine] | 0.589 | –
8 | 1.29 | > 2.5 | < 2.5 | > 2.5 | 2.5 | > 10.0 | 0.32 | c1cc2c(c(N3CCN(CCc4cccc5ccccc45)CC3)c1)OCCO2 [Example 5, 4-(Benzodioxan-5-yl)-1-[2-(naphth-1-yl)ethyl]piperazine] | – | –

Row | Compound | Ki [1, 8] [nM] | ED50 [3, 9] [mg/kg] | ED50 [3, 10] [mg/kg] | CS secretion MED alone [4] [mg/kg] | ED50 [4, 11] [mg/kg] | HYPOTHERMIA MED alone [5, 12] [mg/kg] | ED50 [5, 11] [mg/kg] | Ki [1] [nM] | further results
9 | c1cc2c(c(N3CCN(CCc4ccsc4)CC3)c1)OCCO2 [Example 11, 4-(Benzodioxan-5-yl)-1-[2-(thiophen-3-yl)ethyl]piperazine] | – | > 2.5 | < 2.5 | > 2.5 | 2.5 | > 2.5 | 0.16 | 1.2 | –
10 | O=C1CC2(CCCC2)CC(=O)N1CCCCN1CCN(c2ncccn2)CC1 [buspirone, reference compound] | – | – | – | 2.5 | – | – | – | – | behaviour at 5HT1A receptor (agonist/antagonist, in words) [6]: agonist behaviour; STFs MED alone [2, 12]: > 40.0 mg/kg; % MPA (% maximum possible antagonism), STFs ([2]; vs 8-OH-DPAT 0.63 mg/kg s.c.): 86%; ED50 ([3]; read-out: FBP ID50 (95% CL) + DPAT): > 10 mg/kg; % MPA (% maximum possible antagonism), FBP ([3]; vs 8-OH-DPAT 0.16 mg/kg s.c.): 0%; ED50 [4]: > 10 mg/kg; % MPA (% maximum possible antagonism), CS secretion ([4]; vs 8-OH-DPAT 0.16 mg/kg s.c.): 0%; H[…] alone [5, 12]: 2.5 mg/kg; ED50 [5]: > 10 mg/kg; % MPA (% maximum possible antagonism), HYPOTHERMIA ([5]; vs 8-OH-DPAT 0.16 mg/kg s.c.): 0%; ED50 ([7]; read-out: DD 8-OH-DPAT ED50 (95% CL) alone): 1.35 mg/kg; ED50 ([7]; read-out: DD 8-OH-DPAT ID50 (95% CL) + DPAT): > 2.5 mg/kg
